Test results reported in patent US7323542B2, “Bone targeting peptides” (University of Virginia Patent Foundation, priority 2002, dated 2008).

Key:
[1] = system: LNCaP cells binding to huBMEC; assay: Adhesion of 3H-thymidine labeled LNCaP cancer cells to huBMEC lawns in presence of peptide; assay type: cell-based, human; conditions: for PERCENT OF CONTROL AT 2H ADHESION: LNCaP cells on huBMEC; for inhibition of the ability of LNCaP cells to bind to huBMEC: in words, based on Table 1
Excerpt: (§1) In accordance with one embodiment a method for inhibiting the growth of tumors is provided. The method comprises the steps of contacting tumor cells with a composition comprising an amino acid sequence selected from the group consisting of SEQ ID NOs: 1-24. As described in Example 3 the peptides of the present invention have been studied for their ability to prevent cancer cells from binding to human bone marrow endothelial cells (huBMEC). Either androgen dependent cancer cells (LNCaP cells) or androgen independent cancer cells (C42 cells) were labeled with 3H-thymidine and placed in contact with huBMEC in the presence of varying concentrations of bone targeting peptides R1 (SEQ ID NO: 25), R3 (SEQ ID NO: 27), L13 (SEQ ID NO: 22) and L19 (SEQ ID NO: 24). The cells were washed and the percent of acid precipitatable counts bound to huBMEC was determined (See Table 1). The control, where no bone targeting peptide was added generated approximately 18% acid ppt counts bound. […] Accordingly, these peptides in particular may be formulated a pharmaceutical compositions to prevent metastases to the bone. The composition may further include known anti-cancer agents such as chemotherapeutic agents. The compositions can be administered to a patient using any of the standard routes including oral and parenteral. In one preferred embodiment the compositions are administered locally by injection.
(§2) The initial interaction of metastatic cells is with the surface of the organ that will be colonized. Presumably, this interaction is through cell-matrix or cell-cell interaction. There are at least two potential targets for prostate cancer cells to interact, bone stromal cells and bone marrow endothelial cells. Briefly, lawns of target cells (D1 or huBMEC) will be established in 24-well dishes by seeding ˜5×10^4 cells per well 2-3 days before the adhesion experiment. At this time, subconfluent (˜50%) cultures of test cells (LNCaP, C4-2, DU145 and PC-3) will be placed into media with 1 uCi/ml tritiated thymidine. Two to three days later, labeled cells will be removed using a 5-10 mM EDTA/PBS solution and 1×10^5 test cells will be added to confluent lawns of target cells. Three groups are envisioned for each cell line 1) no peptide, 2) peptide at ED50 and 3) peptide at ED90.
(§3) There will also be an aliquot of labeled cells set aside to determine total acid precipitablc counts added. Adhesion assays will proceed for either 1 or 2 hours. Adherent cells will be separated from non-adherent cells by 2 rounds of 0.5 ml washes with PBS at 100 rpm for 2 minutes per wash. The remaining cells will then be fixed in 10% TCA for 10 min. with gentle shaking followed by hydrolysis of the residue in 0.5 ml of 2 N NaOH. The NaOH will be neutralized by 100 ul of concentrated HCl. The samples will then be counted in a liquid scintillation apparatus. The data will be analyzed by the Mellon Prostate Center Biostatistics Core to determine differences in growth and the ED50 and ED90 for each peptide if reasonable.
(§4) Using this adhesion assay the bone targeting peptides have been studied for their ability to prevent cancer cells from binding to huBMEC. Either androgen dependent cancer cells (LNCaP cells) or androgen independent cancer cells (C42 cells) were labeled with 3H-thymidine and placed in contact with huBMEC in the presence of varying concentrations of bone targeting peptides R1 (SEQ ID NO: 25), R3 (SEQ ID NO: 27), L13 (SEQ ID NO: 22) and L19 (SEQ ID NO: 24). The cells were washed and the percent of acid precipitatable counts bound to huBMEC was determined (See Table 1). The control, where no bone targeting peptide was added, is not shown, but generated approximately 18% acid ppt counts bound. […] Accordingly, these peptides in particular may be formulated a pharmaceutical compositions to prevent metastases to the bone.

[2] = system: C4-2 cells binding to huBMEC; assay: Adhesion of 3H-thymidine labeled C4-2 cancer cells to huBMEC lawns in presence of peptide; assay type: cell-based, human; conditions: for PERCENT OF CONTROL AT 2H ADHESION: C4-2 cells on huBMEC; for inhibition of the ability of C42 cells to bind to huBMEC: in words, based on Table 1
Excerpt: as §1, §2, §3, §4

[3] = system: bone marrow derived mesenchymal cells and human bone marrow endothelial cells; assay: Binding of biotin-coupled peptides to cells in vitro, avidin-FITC detection; assay type: cell-based
Excerpt: The cells currently investigated for binding to the peptides of the present invention were chosen because they are derived from bone marrow and are characteristic of mesenchymal cells that are pluripotential and behave as osteoprogenitors. The cells are capable of differentiating into bone cells in vitro and retain their osteogenic properties after transplantation in vivo into syngeneic mice. The human bone marrow endothelial cells are non-osteogenic and, therefore, are in contrast to the collagen type I, and mineral, producing properties of mesenchymal cells. The bone marrow endothelial cells serve the purpose of having a cell that is derived from the endothelial lining of the bone marrow cavity i.e. a cell from the endosteal surface. Although these are not the only cells that can be used, they will form the basis of the majority of the present studies with cells. […]
Peptides have been synthesized with a gly-gly-gly linker and coupled to biotin. […] Fluorescence was found at attachment sites of cellular processes to the substratum. […]
Control experiments with non-biotinylated peptides will ensure that binding avidin-FITC is specific to the properties of the peptide that target the cell surface or its extracellular matrix. No non-specific binding has been encountered so far with the three peptide sequences that have been explored and, there was no background fluorescence.

[4] = system: rib bone; assay: Localisation of peptides to rib tissue
Excerpt: The peptides may have different effects depending on cell types from different tissues. The need to explore cells from other tissues, such as fibroblasts, adipocytes or muscle cells, may be determined by the location of the peptide ligands in area of tissue that are not directed within bone but there are adjacent to it. The case in point is that one peptide so far, L19, has been located to a tissue, that has not been identified yet, which, is adjacent to bone in rib. […] Analysis of cell types other than marrow mesenchymal or endothelial cells will help identify the specific cells, and their matrices that are targeted by individual peptides.

Row | Substance | PERCENT OF CONTROL AT 2H ADHESION ([1]; peptide 50 μM) | PERCENT OF CONTROL AT 2H ADHESION ([1]; peptide 100 μM) | inhibition of the ability of LNCaP cells to bind to huBMEC [1] | PERCENT OF CONTROL AT 2H ADHESION ([2]; peptide 50 μM) | PERCENT OF CONTROL AT 2H ADHESION ([2]; peptide 100 μM) | inhibition of the ability of C42 cells to bind to huBMEC [2] | binding to cells in culture [3] | binding to bone (in rib) [4] | tissue localisation of peptide ([4]; preliminary)
1 | ALA- THR- TRP-SER-HIS-HIS-LEU-SER-SER-ALA-GLY-LEU (ATWSHHLSSAGL; listed as Homo sapiens) [R3] | 14.7 % of control | 3.8 % of control | substantially inhibits | 17.9 % of control | 7.9 % of control | substantially inhibits | – | – | –
2 | ASN- TYR-SER-HIS-LEU-ARG- VAL-LYS-LEU-PRO-THR-PRO (NYSHLRVKLPTP; listed as Homo sapiens) [R1] | 14.7 % of control | 9.9 % of control | – | 9.0 % of control | 9.6 % of control | – | binds to cells in culture | – | –
3 | ASP-SER-SER-ASN-PRO-ILE-PHE- TRP-ARG-PRO-SER-SER (DSSNPIFWRPSS; listed as Homo sapiens) [L19] | 3.3 % of control | 4.1 % of control | – | 15.6 % of control | 18.4 % of control | substantially inhibits | – | not detected in the bone itself | localized to a soft tissue adjacent to rib
4 | SER-GLY-HIS-GLN-LEU-LEU-LEU-ASN-LYS-MET-PRO-ASN (SGHQLLLNKMPN; listed as Homo sapiens) [L13] | 3.8 % of control | 2.8 % of control | substantially inhibits | 5.8 % of control | 4.2 % of control | substantially inhibits | – | binds to rib bone | –
